Values of other authors in patent publication US20130244874A1, “Waterless Composition Comprising Pesticide and Copolymers with Sulfonic Acid Groups” (BASF SE, priority 2010, published 2013).
In brackets after ≈: the same amount, converted by molar mass.

| Compound | miscibility with water (solvent) | further results |
| --- | --- | --- |
| Cn1cc(C(=O)Nc2ccccc2-c2cc(F)c(F)c(F)c2)c(C(F)F)n1 [Fluxapyroxad, reference compound] | – | solubility in water (20° C.): 3.8 µg/mL (≈ 9.97 µM) |
| CC(C)CCCCCCOC(=O)C1CCCCC1C(=O)OCCCCCCC(C)C (stereo not shown) [Solvent C, Diisononyl 1,2-cyclohexanedicarboxylate] | – | water-soluble (solvent, temperature not given): < 0.02 mg/L |
| C[S+](C)[O-] [Solvent E, DMSO] | infinitely miscible with water | – |
| O=C1CCCO1 [Solvent G, gamma-butyrolactone] | infinitely miscible with water | – |
